The results in this text go back to patent publication US20110082087A1, “COMPOUNDS FOR TREATING PAIN” (Edificio ICAT, priority 2008, published 2011).

Series [1] concerns rats (Wister, male). The series can be described thus: Tail Flick test. The series is classed as in vivo, rat. Here is the method: (§1) In vivo behavioural anti-nociception tests were carried out in rats (Wister, male). Unless otherwise stated, compounds were administered by intra-peritoneal (i.p.) injection. For most assays, the Tail Flick and the Hot Plate tests were used.
The tail-flick test (D'Amour F. E., Smith D. L. 1941. A method for determining the loss of pain sensation. J Pharmacol Exp Ther 1941; 72:74-79) is a standard investigative tool for pain and analgesia assessment in rodents. It is based on a spinal reflex response of the tail to radiant heat. Pain sensitivity in rats was measured as they responded to the application of radiant heat to a small area of their tails. The rat's tail was placed over a window located on a platform and subjected to irradiation by an intense light beam (10 W). When the rat feels discomfort, it flicks its tail which automatically stops the timer. The reaction time from activation of the light beam to the tail flick is automatically presented on a digital display. A cut-off time of 24 s was applied. Animal reaction time is a measurement of animal resistance to pain and is used to measure efficacy of analgesics.

In series [2] the test system is rats (Wister, male). Description: Increasing-temperature Hot Plate test. The format is in vivo, rat. Here is the method: as §1
The hot-plate test (Eddy N. B and Leimbach D. 1953. Synthetic analgesics II. Dithienylbutenyl and dithienylbutylamines J. Pharmacol. Exp. Ther. 45: 339) evaluates a supraspinally integrated response in the form of thermal pain reflexes due to footpad contact with a heated surface. During the experiments, the animal is confined in a removable clear acrylic compartment where the latency time to the first hind paw or/and jumping responses are measured. […] The response is the licking of the hindpaw, and the corresponding plate temperature represents the recorded nociceptive end-point. The advantage of Increasing-Temperature Hot-Plate test over the standard constant-temperature hot-plate test is the higher sensitivity and the lack of influences of pre-exposure to the hot-plate before testing. Animal reaction temperature is a measurement of animal resistance to pain and is used to measure efficacy of analgesics.

Series [3] deals with c-fos. Description: Formalin-induced c-fos expression in spinal cord dorsal horn (immunohistochemistry). The format is in vivo, rat. The note with it: formalin-treated rats.
In series [4] the test system is monoarthritis rats. The series can be described thus: CFA-induced monoarthritis, Hargreaves and Tail Flick tests. The series is classed as in vivo, rat. The text has this:
The subcutaneous intraplantar injection of complete Freund's adjuvant (CFA) into the local area of an animal can cause severe inflammatory pain around the injected area. This CFA-induced inflammatory pain has been widely used as a kind of pain model in the field of pain research since it was reported. Inflammatory pain was induced by an injection of complete Freund's adjuvant into the right hindpaw of the rats (S. H. Butler, F. Godefroy, J. M. Besson and J. Weilfugazza. 1992. A limited arthritic model for chronic pain studies in the rat. Pain, 48: 73-81). The paw withdrawal latency was used to assess the inflammatory pain according to the method of Hargreaves et al. (Hargreaves K, Dubner R, Brown F, Flores C, and Joris J. 1988. A new and sensitive method for measuring thermal nociception in cutaneous hyperalgesia. Pain 32: 77-88, 1988). The CFA-injected area of the right paw was placed on a constant-intensity radiant heat source and the time of paw-withdrawal latency was measured by observing the animal's paw-withdrawal response after applying initial heat to the left or right paws. Additionally, the Tail Flick test was performed in order to assess the secondary hyperalgesia.
(In hot-plate and tail-flick tests a longer latency is read as antinociception.)

For series [5], the system named is rats. The series can be described thus: Rota-rod test (motor ability). The format is in vivo, rat. The settings on record: 3.23 mg/100 g of body mass. Here is the method: To evaluate the motor ability of animals after being injected with the drug (3.23 mg/100 g of body mass), the Rota-rod test was used. Briefly, the animal is placed on a wheel and run in balanced position; if balance is lost, the animal falls.
A general note: The rotarod test checks motor coordination on a turning rod.

Series [6] relates to rats (Wister, male). The series can be described thus: Histological alterations in liver, kidney and spleen. The format is in vivo, rat. The settings on record: hematoxylin/eosin; 3.23 mg/100 g i.p. seven days. Here is the method:
The toxicological studies were carried out with rats (Wister, male) injected i.p. once a day with 3.23 mg/100 g body mass during seven days.
For investigation of histological alterations in liver, kidney and spleen hematoxylin/eosin-stained sections of fixed tissue were used.

The nature of series [7]: Metabolic stability in human liver microsomal preparation. The format is in vitro ADME. The settings on record: liver microsomes; 1-hour incubation with human liver microsomal preparation; read-out: compound remained. The text has this:
Many compounds can never become a drug because they are rapidly metabolized in the liver. It is important to confirm that metabolic stability is adequate to the desired distribution of compound throughout the body.
In general terms: Liver microsomes are vesicles of endoplasmic reticulum, rich in cytochrome P450 enzymes.

For series [8], the target named is CYP3A4 (Homo sapiens, UniProt P08684). Description: CYP inhibition. The series is classed as in vitro ADME. The settings on record: probe substrates midazolan and testosterone. The text has this: CYP3A4 is one of the most important enzymes involved in the metabolism of xenobiotics in the body, promoting the oxidation of the largest range of substrates of all the CYPs and is present in the largest quantity of all the CYPs in the liver.

Series [9] can be described thus: Cytotoxicity (LDH release and ATP). The format is cell-based. The note with it: human hepatocytes; LDH and ATP determination; read-out: LC50 (the source's name). Here is the method:
Cytotoxicity was assessed with a cell-based assay using human hepatocytes. Cell death was assayed by quantifying plasma membrane damage or rupture through measurement of the release of lactate dehydrogenase (LDH) (Legrand, C. et al. 1992. Lactate dehydrogenase (LDH) activity of the cultured eukaryotic cells as marker of the number of dead cells in the medium. J. Biotechnol. 25: 231-243), a stable cytoplasmic enzyme present in most cells. Determination of cell viability was performed by quantifying ATP (Cree I. A and Andreotti P. E. 1997. Measurement of cytotoxicity by ATP-based luminescence assay in primary cell cultures and cell lines. Toxicology in vitro, 11: 553-556), a marker for cell viability because it is present in all metabolically active cells and the concentration declines very rapidly when the cells undergo necrosis or apoptosis.

A short description of series [10]: Plasma stability. The format is in vitro ADME, human. The settings on record: after 1 h incubation. The text has this: Drugs are exposed in plasma to enzymatic processes (proteinases, esterases), they can undergo intramolecular rearrangement or bind irreversibly (covalently) to proteins. Compounds which are not stable in plasma have inherent liability as drug candidates, as they are less capable to reach a sufficient concentration at their site of pharmacological activity.

Chain of CYP3A4 (P08684 whole entry): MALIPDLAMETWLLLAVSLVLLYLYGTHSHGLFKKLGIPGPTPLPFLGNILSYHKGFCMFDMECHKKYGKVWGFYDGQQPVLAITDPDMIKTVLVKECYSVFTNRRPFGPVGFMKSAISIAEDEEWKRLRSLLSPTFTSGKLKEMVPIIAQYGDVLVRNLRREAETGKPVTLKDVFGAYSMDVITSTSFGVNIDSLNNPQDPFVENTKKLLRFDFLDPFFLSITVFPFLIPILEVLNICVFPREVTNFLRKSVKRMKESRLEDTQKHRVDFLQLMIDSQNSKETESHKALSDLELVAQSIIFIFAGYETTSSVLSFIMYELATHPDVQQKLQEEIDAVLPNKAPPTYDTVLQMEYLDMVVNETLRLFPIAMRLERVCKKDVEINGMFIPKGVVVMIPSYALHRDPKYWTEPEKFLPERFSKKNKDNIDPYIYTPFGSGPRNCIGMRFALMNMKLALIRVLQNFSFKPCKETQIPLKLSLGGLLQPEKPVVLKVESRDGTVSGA

With `N=C(N)NCCC[C@H](NC(=O)[C@@H](N)Cc1ccc(O)cc1)C(N)=O` [KTP-NH2, L-Tyr-L-Arg-NH2], the “response after chronic administration” value in series [1] (Tail Flick, 3.23 mg/100 g once a day for seven days vs single injection) is reported as “very similar profile to the control”. The “analgesic effect compared with ibuprofen” value in series [1] (Tail Flick, i.p.) is reported as “more durable effect”; in series [2] (Hot Plate, i.p.), “more pronounced effect”. Also, the “duration of anti-nociceptive response” value is 45 min in series [1] (Tail Flick, i.p., rat) and 30 min in series [2] (Hot Plate, i.p., rat). Also, the “smallest dose tested with statistical significance” value in series [1] (Tail Flick, i.p., rat) was 2.45 mg for 100 g of body mass; in [2] (Hot Plate, i.p., rat) it was 1.67 mg for 100 g of body mass. For the same compound, the “analgesic efficacy after oral administration” value in series [1] (Tail Flick, oral, rat) is on record as “slight delay of the onset of effect”; in [2] (Hot Plate, oral, rat), “slight delay of the onset of effect”. Also, the “effect on tail flick latency” value in series [1] (i.p., rat) was “clear anti-nociceptive response”. In series [1] (tail-flick, naloxone 0.5 mg/100 g 10 min before, KTP-NH2 3 mg/100 g), the “analgesia after pretreatment with naloxone” value is “completely antagonized”. In addition, the “effect in hot plate test” value in series [2] (i.p., rat) is “clear anti-nociceptive response”. The “formalin-induced c-fos protein expression in dorsal horn” value in series [3] is “significantly decreased”. In series [4], the “analgesic effect in chronic inflammatory pain” value is on record as “efficacy”. The “motor ability, loss of balance” value in [5] is recorded as “No loss of balance/equilibrium”. In addition, the “histological alterations in kidney and spleen” value in series [6] is recorded as “no histological modifications”. The “histological alterations in liver” value in series [6] is “no sign of hepatic necrosis”. In addition, the remaining at 1 h in series [7] stood at 93%. Besides, the CYP3A4 inhibition result in series [8] is “not to inhibit”. Also, the CC50 in series [9] was greater than 125 µM. The “stability in human plasma” value in series [10] is reported as 14-21%.
